Experimental data from the supplement of paper PMC4862054.

Tests used:
BT-474 [1] = experiment: drug sensitivity score (DSS), CellTiter-Blue viability (DSS (AUC-based score)); higher = stronger viability inhibition; extreme values may be limits of the assay; settings: incubation time: 72 h
Protocol: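 DSRT with the CellTiter-Blue (resazurin reduction) viability readout, fluorescence 560/590 nm, 72 h incubation. Plates were normalised to DMSO and benzethonium chloride controls. DSS is computed from the area under the fitted dose-response curve (5 or 9 concentrations).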

MDA-MB-436 = experiment: normalised viability (% of control), CellTiter-Blue; higher = more viable cells (about 100 = DMSO control); settings: 10 nM; incubation time: 72 h
Protocol: (§1)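 DSRT, CellTiter-Blue viability, 72 h incubation. Signal is normalised to DMSO and benzethonium chloride controls. Value is the normalised response at dose 3.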

CAL-120 [2] = experiment: as above; settings: 10 nM; incubation time: 72 h
Protocol: as §1

MDA-MB-453 = experiment: as above; settings: 1 nM; incubation time: 72 h
Protocol: as §1

MDA-MB-231 = experiment: as above; settings: 10 nM; incubation time: 72 h
Protocol: as §1

HCC1599 = experiment: as above; settings: 10 nM; incubation time: 72 h
Protocol: as §1

BT-549 = experiment: as above; settings: 10 nM; incubation time: 72 h
Protocol: as §1

Hs578T [3] = experiment: as above; settings: 10 nM; incubation time: 72 h
Protocol: as §1

CAL-85-1 [4] = experiment: as above; settings: 1 nM; incubation time: 72 h
Protocol: as §1

CAL-51 [5] = experiment: as above; settings: 1 nM; incubation time: 72 h
Protocol: as §1

HCC1937 [6] = experiment: as above; settings: 10 nM; incubation time: 72 h
Protocol: as §1

MDA-MB-468 = experiment: as above; settings: 10 nM; incubation time: 72 h
Protocol: as §1

MFM-223 = experiment: as above; settings: 10 nM; incubation time: 72 h
Protocol: as §1

HCC1143 [7] = experiment: as above; settings: 10 nM; incubation time: 72 h
Protocol: as §1

SK-BR-3 = experiment: as above; settings: 10 nM; incubation time: 72 h
Protocol: as §1

CAL-148 [8] = experiment: as above; settings: 1 nM; incubation time: 72 h
Protocol: as §1

HDQ-P1 [9] = experiment: as above; settings: 1 nM; incubation time: 72 h
Protocol: as §1

DU-4475 = experiment: as above; settings: 1 nM; incubation time: 72 h
Protocol: as §1

BT-474 [10] = experiment: as above; settings: 10 nM; incubation time: 72 h
Protocol: as §1

CAL-120 [11] = experiment: normalised response (% of control), CellTox Green; higher = less cell death (100 = DMSO, 0 = benzethonium chloride kill control); settings: incubation time: 72 h
Summary of the method: (§2)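 Breast cancer cell lines were exposed for 72 h in 384-well plates to compound at 5 concentrations, 10-fold apart, covering a 10,000-fold range fixed for each compound. Plates were read for CellTox Green fluorescence and CellTiter-Glo luminescence and normalised to 0.1 % DMSO (100) and a positive kill control (0). Each value is the normalised signal at one concentration of the series.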

MCF-10A = experiment: as above; settings: incubation time: 72 h
Summary of the method: as §2

Hs578T [12] = experiment: as above; settings: incubation time: 72 h
Summary of the method: as §2

CAL-85-1 [13] = experiment: as above; settings: incubation time: 72 h
Summary of the method: as §2

CAL-51 [14] = experiment: as above; settings: incubation time: 72 h
Summary of the method: as §2

HCC1937 [15] = experiment: as above; settings: incubation time: 72 h
Summary of the method: as §2

HCC1143 [16] = experiment: as above; settings: incubation time: 72 h
Summary of the method: as §2

CAL-148 [17] = experiment: as above; settings: incubation time: 72 h
Summary of the method: as §2

HDQ-P1 [18] = experiment: as above; settings: incubation time: 72 h
Summary of the method: as §2

Row | SMILES | drug sensitivity score (BT-474 [1]) | normalised viability (MDA-MB-436) [%] | normalised viability (CAL-120 [2]) [%] | normalised viability (MDA-MB-453) [%] | normalised viability (MDA-MB-231) [%] | normalised viability (HCC1599) [%] | normalised viability (BT-549) [%] | normalised viability (Hs578T [3]) [%] | normalised viability (CAL-85-1 [4]) [%] | normalised viability (CAL-51 [5]) [%] | normalised viability (HCC1937 [6]) [%] | normalised viability (MDA-MB-468) [%] | normalised viability (MFM-223) [%] | normalised viability (HCC1143 [7]) [%] | normalised viability (SK-BR-3) [%] | normalised viability (CAL-148 [8]) [%] | normalised viability (HDQ-P1 [9]) [%] | normalised viability (DU-4475) [%] | normalised viability (BT-474 [10]) [%] | normalised response (CAL-120 [11]) [%] | normalised response (MCF-10A) [%] | normalised response (Hs578T [12]) [%] | normalised response (CAL-85-1 [13]) [%] | normalised response (CAL-51 [14]) [%] | normalised response (HCC1937 [15]) [%] | normalised response (HCC1143 [16]) [%] | normalised response (CAL-148 [17]) [%] | normalised response (HDQ-P1 [18]) [%]
1 | CC(=O)[C@]1(O)Cc2c(O)c3c(c(O)c2[C@@H](O[C@H]2C[C@H](N)[C@H](O)[C@H](C)O2)C1)C(=O)c1ccccc1C3=O [Idarubicin] | 10.2 | 106 | 70.1 | 98 | 102 | 97.2 | 82.6 | 72.8 | 92.3 | 105 | 47.2 | 73.3 | 103 | 103 | 67 | 93.9 | 113 | 98 | 113 | – | – | – | – | – | – | – | – | –
2 | C/C(=C\c1csc(C)n1)[C@@H]1C[C@@H]2O[C@]2(C)CCC[C@H](C)[C@H](O)[C@@H](C)C(=O)C(C)(C)[C@@H](O)CC(=O)N1 [Ixabepilone] | 2.15 | 105 | 76.4 | 89.6 | 98 | 94.9 | 95.2 | 81.2 | 90.1 | 104 | 95.2 | 91.1 | 73.3 | 77 | 80.7 | 90.5 | 82.7 | 94.3 | 96.6 | – | – | – | – | – | – | – | – | –
3 | CC1(C)CCC(c2ccc(Cl)cc2)=C(CN2CCN(c3ccc(C(=O)NS(=O)(=O)c4ccc(N[C@H](CCN5CCOCC5)CSc5ccccc5)c(S(=O)(=O)C(F)(F)F)c4)cc3)CC2)C1 [Navitoclax] (10000 nM) | – | – | – | – | – | – | – | – | – | – | – | – | – | – | – | – | – | – | – | 13.6 | 60.6 | 101 | 76.8 | 31.9 | 69.4 | 113 | 74.6 | -0.28
4 | Cc1cn(-c2cc(NC(=O)c3ccc(C)c(Nc4nccc(-c5cccnc5)n4)c3)cc(C(F)(F)F)c2)cn1 [Nilotinib] (1000 nM) | – | – | – | – | – | – | – | – | – | – | – | – | – | – | – | – | – | – | – | 97 | 107 | 104 | 101 | 86.3 | 131 | 91.8 | 106 | 79.2
5 | Cc1cn(-c2cc(NC(=O)c3ccc(C)c(Nc4nccc(-c5cccnc5)n4)c3)cc(C(F)(F)F)c2)cn1 [Nilotinib] (10000 nM) | – | – | – | – | – | – | – | – | – | – | – | – | – | – | – | – | – | – | – | 101 | 98.3 | 64.7 | 88.6 | 92.6 | 93.1 | 104 | 98.3 | 108
6 | O=C(CCCCCCC(=O)Nc1ccccc1)NO [Vorinostat] (10000 nM) | – | – | – | – | – | – | – | – | – | – | – | – | – | – | – | – | – | – | – | 36.3 | 98.4 | 60.6 | 51.7 | -6.76 | 84.3 | 42.1 | 45.5 | 103
